Experimental data as given in patent US12495798B2, “Nicotinamide compound and herbicidal composition comprising compound” (KOREA RESEARCH INSTITUTE OF CHEMICAL TECHNOLOGY, priority 2019, dated 2025).

Experiments:
Format in all cases: in vivo
[1] = tested on: sorghum; assay: Herbicidal activity test against upland field weeds (foliar treatment test); conditions: Sorghum, 50 g ai/ha, scale 0-100
How it was run: (§1)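 Weeds were raised from seed or rootstocks in horticultural soil in a greenhouse (30±5° C., 14/10 h light/dark), then foliage was hand-sprayed with compound at 50 or 75 g a.i./ha in 50% acetone with 0.1% Tween-20. Control was scored visually 0–100 against untreated plants after 14 days, or 21 if needed.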

[2] = tested on: barnyard grass; assay: as above; conditions: Echinochloa crus-galli, 50 g ai/ha, scale 0-100
How it was run: as §1

[3] = tested on: fall panicum; assay: as above; conditions: Panicum dichotomiflorum, 50 g ai/ha, scale 0-100
How it was run: as §1

[4] = tested on: indian jointvetch; assay: as above; conditions: 50 g ai/ha, scale 0-100
How it was run: as §1

[5] = tested on: cocklebur; assay: as above; conditions: Xanthium strumarium, 50 g ai/ha, scale 0-100
How it was run: as §1

[6] = tested on: corn; assay: Phytotoxicity test for upland field crops (foliar treatment test); set-up: key: 0 (no harm); 9 (complete withered)
How it was run: (§2)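 Application rate ranged 19˜300 g a.i./ha, delivered as a foliar spray (100 ml/m^2) in 33% acetone with 0.1% Tween-20 to crops raised at 30±5 °C under 14/10 h light/dark. Symptoms were assessed 7 and 14 days post-treatment, extending to 21 days where necessary, using a 0–9 injury grade relative to untreated control.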

[7] = tested on: cotton; assay: as above; set-up: key: 0 (no harm); 9 (complete withered)
How it was run: as §2

[8] = tested on: rice; assay: as above; set-up: key: 0 (no harm); 9 (complete withered)
How it was run: as §2

[9] = tested on: soybean; assay: as above; set-up: key: 0 (no harm); 9 (complete withered)
How it was run: as §2

[10] = tested on: wheat; assay: as above; set-up: key: 0 (no harm); 9 (complete withered)
How it was run: as §2

[11] = 50 g ai/ha, Corn (7 days after treatment)
[12] = 50 g ai/ha, Corn (14 days after treatment)
[13] = 100 g ai/ha, Corn (7 days after treatment)
[14] = 100 g ai/ha, Corn (14 days after treatment)
[15] = 50 g ai/ha, Cotton (7 days after treatment)
[16] = 50 g ai/ha, Cotton (14 days after treatment)
[17] = 100 g ai/ha, Cotton (7 days after treatment)
[18] = 100 g ai/ha, Cotton (14 days after treatment)
[19] = 50 g ai/ha, Rice (7 days after treatment)
[20] = 50 g ai/ha, Rice (14 days after treatment)
[21] = 100 g ai/ha, Rice (7 days after treatment)
[22] = 100 g ai/ha, Rice (14 days after treatment)
[23] = 50 g ai/ha, Soybean (7 days after treatment)
[24] = 50 g ai/ha, Soybean (14 days after treatment)
[25] = 100 g ai/ha, Soybean (7 days after treatment)
[26] = 100 g ai/ha, Soybean (14 days after treatment)
[27] = 50 g ai/ha, Wheat (7 days after treatment)
[28] = 50 g ai/ha, Wheat (14 days after treatment)
[29] = 100 g ai/ha, Wheat (7 days after treatment)
[30] = 100 g ai/ha, Wheat (14 days after treatment)

Compound | plant injury at 50 g/ha [1] [%] | pest or weed control at 50 g/ha [2] [%] | pest or weed control at 50 g/ha [3] [%] | pest or weed control at 50 g/ha [4] [%] | pest or weed control at 50 g/ha [5] [%] | Foliar treatment phytotoxicity, Corn [6, 11] | Foliar treatment phytotoxicity, Corn [6, 12] | Foliar treatment phytotoxicity, Corn [6, 13] | Foliar treatment phytotoxicity, Corn [6, 14] | Foliar treatment phytotoxicity, Cotton [7, 15] | Foliar treatment phytotoxicity, Cotton [7, 16] | Foliar treatment phytotoxicity, Cotton [7, 17] | Foliar treatment phytotoxicity, Cotton [7, 18] | Foliar treatment phytotoxicity, Rice [8, 19] | Foliar treatment phytotoxicity, Rice [8, 20] | Foliar treatment phytotoxicity, Rice [8, 21] | Foliar treatment phytotoxicity, Wheat [10, 27] | Foliar treatment phytotoxicity, Wheat [10, 28] | Foliar treatment phytotoxicity, Wheat [10, 29] | Foliar treatment phytotoxicity, Wheat [10, 30] | further results
Cc1nc(COCc2nc(C(F)(F)F)ccc2C(=O)Nc2nnnn2C)nn1C [Compound No. 2-116, 2-(((1,5-dimethyl-1H-1,2,4-triazol-3-yl)methoxy)methyl)-N-(1-methyl-1H-tetrazol-5-yl)-6-(trifluoromethyl)nicotinamide] | 40 | 98 | 80 | 40 | 98 | 1 | 0 | 2 | 2 | 2 | 1 | 3 | 2 | 4 | 5 | 4 | 0 | 0 | 0 | 0 | Foliar treatment phytotoxicity, Rice [8, 22]: 5; Foliar treatment phytotoxicity, Soybean [9, 23]: 2; Foliar treatment phytotoxicity, Soybean [9, 24]: 3; Foliar treatment phytotoxicity, Soybean [9, 25]: 3; Foliar treatment phytotoxicity, Soybean [9, 26]: 5
Cn1nnc(CSCc2nc(C(F)(F)F)ccc2C(=O)N(c2nnnn2C)S(C)(=O)=O)n1 [Compound No. 2-110, N-(1-methyl-1H-tetrazol-5-yl)-2-((((2-methyl-2H-tetrazol-5-yl)methyl)thio)methyl)-N-(methylsulfonyl)-6-(trifluoromethyl)nicotinamide] | 20 | 20 | 70 | 95 | 95 | 0 | 0 | 0 | 0 |  |  |  |  |  |  |  | 0 | 0 | 0 | 0 | 
Cc1nc(COCc2nc(C(F)(F)F)ccc2C(=S)Nc2nnnn2C)nn1C [Compound No. 2-117, 2-(((1,5-dimethyl-1H-1,2,4-triazol-3-yl)methoxy)methyl)-N-(1-methyl-1H-tetrazol-5-yl)-6-(trifluoromethyl)pyridin-3-carbothioamide] | 40 | 98 | 40 | 40 | 90 | 1 | 1 | 3 | 2 | 3 | 2 | 4 | 2 | 3 | 6 | 4 | 0 | 0 | 1 | 0 | Foliar treatment phytotoxicity, Rice [8, 22]: 5; Foliar treatment phytotoxicity, Soybean [9, 23]: 3; Foliar treatment phytotoxicity, Soybean [9, 24]: 5; Foliar treatment phytotoxicity, Soybean [9, 25]: 4; Foliar treatment phytotoxicity, Soybean [9, 26]: 6
Cn1nc(COCc2nc(C(F)(F)F)ccc2C(=O)Nc2nnnn2C)nc1Br [Compound No. 2-136, 2-(((5-bromo-1-methyl-1H-1,2,4-triazol-3-yl)methoxy)methyl)-N-(1-methyl-1H-tetrazol-5-yl)-6-(trifluoromethyl)nicotinamide] | 20 | 70 | 50 | 20 | 95 | 0 | 0 | 2 | 3 | 3 | 6 | 3 | 8 | 4 | 6 | 5 | 0 | 0 | 0 | 0 | Foliar treatment phytotoxicity, Rice [8, 22]: 7; Foliar treatment phytotoxicity, Soybean [9, 23]: 4; Foliar treatment phytotoxicity, Soybean [9, 24]: 6; Foliar treatment phytotoxicity, Soybean [9, 25]: 4; Foliar treatment phytotoxicity, Soybean [9, 26]: 6
CON(Cc1nnn(C)n1)Cc1nc(C(F)(F)F)ccc1C(=O)Nc1nnnn1C [Compound No. 2-97, 2-((methoxy((2-methyl-2H-tetrazol-5-yl)methyl)amino)methyl)-N-(1-methyl-1H-tetrazol-5-yl)-6-(trifluoromethyl)nicotinamide] | 50 | 95 | 95 | 95 | 95 | 0 | 0 | 2 | 1 | 5 | 9 | 6 | 9 | 6 | 8 | 6 | 0 | 0 | 0 | 0 | Foliar treatment phytotoxicity, Rice [8, 22]: 9; Foliar treatment phytotoxicity, Soybean [9, 23]: 5; Foliar treatment phytotoxicity, Soybean [9, 24]: 6; Foliar treatment phytotoxicity, Soybean [9, 25]: 7; Foliar treatment phytotoxicity, Soybean [9, 26]: 9
Cn1nc(COCc2nc(C(F)(F)F)ccc2C(=O)Nc2nnnn2C)nc1C#N [Compound No. 2-134, 2-(((5-cyano-1-methyl-1H-1,2,4-triazol-3-yl)methoxy)methyl)-N-(1-methyl-1H-tetrazol-5-yl)-6-(trifluoromethyl)nicotinamide] | 10 | 98 | 50 | 70 | 50 | 0 | 0 | 0 | 0 | 3 | 2 | 3 | 8 | 3 | 6 | 3 | 0 | 0 | 0 | 0 | Foliar treatment phytotoxicity, Rice [8, 22]: 7; Foliar treatment phytotoxicity, Soybean [9, 23]: 4; Foliar treatment phytotoxicity, Soybean [9, 24]: 6; Foliar treatment phytotoxicity, Soybean [9, 25]: 4; Foliar treatment phytotoxicity, Soybean [9, 26]: 8
